“And” between values parts separate entries of the source, which are not always exact repeats. Equal entries are not always repeated.
Key:
CYP2E1 [1] = target: T1, CYP2E1 (Homo sapiens, UniProt P05181); experiment: Induction/inhibition of CYP2E1 activity in cryopreserved human hepatocytes (chlorzoxazone)
Excerpt: Hepatocytes from three human donors were obtained from a cryopreserved hepatocyte bank (In Vitro Technologies, Inc., USA). After thawing, viable hepatocytes were transferred to collagen-coated 48-well plates for attachment in plating medium (DMEM stock (Dulbecco's modified Eagle's medium, supplemented with bovine serum albumin, fructose, N-(2-hydroxyethyl)piperazine-N′-(2-ethanesulfonate) (HEPES), and sodium bicarbonate), supplemented with antibiotics, bovine serum, hydrocortisone, insulin and minimum essential medium (MEM) nonessential amino acids). After attachment to the collagen matrix, plating medium was replaced with sandwich medium (plating medium supplemented with VITROGEN) and incubated until use.
The supplemented KHB was replaced with 150 μL supplemented KHB containing the appropriate isoform-selective substrate and incubated for 4 hrs prior to termination by adding 150 μL ice-cold methanol, except for the CYP2C8 incubations which were terminated by adding 150 μL acetonitrile.
All substrates were dissolved in acetonitrile.
Replicate trials and controls were performed. […] Additionally, reference control samples were included to evaluate inducibility of CYP2B6, CYP2C9, and CYP2C19 in the test system.
Mean specific activity values with associated p-values≦0.05 were deemed to be statistically significant.

CYP2A6 = target: T2, CYP2A6 (Homo sapiens, UniProt P11509); experiment: Inhibition of CYP2A6 activity in pooled human liver microsomes (coumarin 8 μM to 7-hydroxy coumarin); type: in vitro ADME
T2 sequence (P11509 1-494): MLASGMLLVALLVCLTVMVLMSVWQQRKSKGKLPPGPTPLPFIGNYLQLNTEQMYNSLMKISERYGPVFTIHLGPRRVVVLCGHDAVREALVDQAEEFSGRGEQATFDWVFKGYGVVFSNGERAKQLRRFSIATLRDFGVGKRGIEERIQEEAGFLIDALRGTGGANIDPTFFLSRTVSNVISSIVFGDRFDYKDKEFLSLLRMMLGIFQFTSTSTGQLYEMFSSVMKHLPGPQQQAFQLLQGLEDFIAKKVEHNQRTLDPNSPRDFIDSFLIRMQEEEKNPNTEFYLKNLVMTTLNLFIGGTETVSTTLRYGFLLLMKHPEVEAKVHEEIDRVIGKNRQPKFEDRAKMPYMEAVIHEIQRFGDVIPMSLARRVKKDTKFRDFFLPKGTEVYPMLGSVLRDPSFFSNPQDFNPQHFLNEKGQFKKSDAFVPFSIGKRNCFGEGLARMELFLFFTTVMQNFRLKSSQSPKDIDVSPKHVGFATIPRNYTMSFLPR
Description: (§1) All other incubations were for 30 minutes.
(§2) Four replicates were performed.
(§3) Two replicates were performed.

[2] = in vivo; Bruce et al. 1966; cited from earlier work
CYP3A4 = CYP3A4 (Homo sapiens, UniProt P08684); experiment: Metabolism of metaxalone by expressed recombinant human CYP3A4 (Example 1); conditions: 30 min;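 further: microsomes holding 10 pmol P450, reactions started by an NADPH regenerating system after 5 min preincubation, 0.5 mL final volume, background signal taken from matrix controls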
Description: Commercially available microsomes from baculovirus-infected insect cells containing singly-expressed recombinant wild-type (*1 allele) human CYP enzymes and cDNA-expressed human cytochrome p450 oxidoreductase [BD SUPERSOMES Enzymes; BD Biosciences Discovery Labware (Woburn, Mass.)] were used.
After a 5-minute pre-incubation, an NADPH regenerating system (NRS) was added to the incubation mixtures to initiate reactions, with a final incubation volume of 0.5 mL. Incubations were continued for 30 minutes, and then terminated, except for those for CYP2C19, which were incubated for 36 minutes prior to termination.
Matrix controls were performed to determine the background signal from the matrix components (microsomes (10 pmol p450), 01N Tris buffer, NRS, and 1% methanol). […] After a 5-minute pre-incubation, 2% sodium bicarbonate solution was added to the incubation mixtures. Incubation was for 30 minutes at a final volume of 0.5 mL. Matrix and metabolic negative controls were terminated by adding an equal volume of methanol. […] Analysis of samples was subsequent to storage at −70° C.

CYP2E1 [3] = target: T1, CYP2E1; experiment: Metabolism of metaxalone by expressed recombinant human CYP2E1 at 5 or 20 pmol (Example 4); conditions: for percent turnover / % Turnover Mean / [metaxalone] Mean / % Turnover % / [metaxalone]: 60 min; for % Turnover % / [metaxalone]: single replicates, listed as Metaxalone
CYP2C9 = CYP2C9 (Homo sapiens, UniProt P11712); experiment: Inhibition of CYP2C9 activity in pooled human liver microsomes (tolbutamide 150 μM to 4′-methylhydroxytolbutamide); type: in vitro ADME; parameters: host or cells: cryopreserved primary human hepatocytes from three donors
Description: as §1, §2, §3

[4] = CYP isozyme 2E1, summary of studies
[5] = 0.75 μM metaxalone, 20 pmol cyp

T1 sequence (P05181 whole entry): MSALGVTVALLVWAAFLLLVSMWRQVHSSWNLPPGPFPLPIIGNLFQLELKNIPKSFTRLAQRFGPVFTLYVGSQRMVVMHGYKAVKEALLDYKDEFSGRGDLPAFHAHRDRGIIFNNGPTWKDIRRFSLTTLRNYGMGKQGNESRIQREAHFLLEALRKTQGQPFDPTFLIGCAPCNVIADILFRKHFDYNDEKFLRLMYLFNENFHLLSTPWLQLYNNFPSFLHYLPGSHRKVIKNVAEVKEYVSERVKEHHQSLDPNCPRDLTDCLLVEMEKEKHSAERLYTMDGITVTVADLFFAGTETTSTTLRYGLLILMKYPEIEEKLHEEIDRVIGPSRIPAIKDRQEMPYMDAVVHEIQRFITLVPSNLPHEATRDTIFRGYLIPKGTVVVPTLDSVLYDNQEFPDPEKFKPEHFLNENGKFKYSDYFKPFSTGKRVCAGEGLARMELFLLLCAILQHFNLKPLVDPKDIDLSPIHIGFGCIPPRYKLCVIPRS
Sequence of CYP2C9 (P11712 whole entry): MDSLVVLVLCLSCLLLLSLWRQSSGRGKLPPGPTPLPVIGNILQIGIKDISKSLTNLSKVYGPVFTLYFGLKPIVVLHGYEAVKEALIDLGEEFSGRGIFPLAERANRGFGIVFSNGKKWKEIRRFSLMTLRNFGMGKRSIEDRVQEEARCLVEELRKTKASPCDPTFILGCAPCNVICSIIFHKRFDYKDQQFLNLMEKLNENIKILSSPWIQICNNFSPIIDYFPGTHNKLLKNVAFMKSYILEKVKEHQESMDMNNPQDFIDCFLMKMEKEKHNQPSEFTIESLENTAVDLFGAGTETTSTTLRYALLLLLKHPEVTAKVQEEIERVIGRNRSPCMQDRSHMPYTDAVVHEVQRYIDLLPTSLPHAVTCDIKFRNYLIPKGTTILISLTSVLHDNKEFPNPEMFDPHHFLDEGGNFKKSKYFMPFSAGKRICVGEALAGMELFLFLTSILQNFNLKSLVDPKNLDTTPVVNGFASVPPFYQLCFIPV
Sequence of CYP3A4 (P08684 2-503 limits assumed): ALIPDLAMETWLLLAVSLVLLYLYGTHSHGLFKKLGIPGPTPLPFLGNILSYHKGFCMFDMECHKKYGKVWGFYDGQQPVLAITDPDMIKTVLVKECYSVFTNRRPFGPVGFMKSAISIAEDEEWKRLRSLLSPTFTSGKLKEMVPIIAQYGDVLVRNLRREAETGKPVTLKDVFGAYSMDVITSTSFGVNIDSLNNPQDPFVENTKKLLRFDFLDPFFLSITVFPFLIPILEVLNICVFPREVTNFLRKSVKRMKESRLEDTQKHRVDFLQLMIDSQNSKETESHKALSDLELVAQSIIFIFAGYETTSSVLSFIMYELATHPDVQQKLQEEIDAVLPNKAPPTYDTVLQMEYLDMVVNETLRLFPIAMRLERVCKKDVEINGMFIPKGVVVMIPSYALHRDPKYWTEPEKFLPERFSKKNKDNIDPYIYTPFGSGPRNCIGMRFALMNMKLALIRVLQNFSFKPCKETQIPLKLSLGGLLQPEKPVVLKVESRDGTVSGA

Compound: Cc1cc(C)cc(OCC2CNC(=O)O2)c1 (stereo not drawn) [metaxalone, 5-[(3,5-dimethylphenoxy)methyl]-2-oxazolidinone]
- Inducer/Inhibitor (CYP2E1 [1]; [4]): 0
- Specific Activity Individual (CYP2E1 [1]; Donor 1, Metaxalone 0.4 μM): 2.58 pmol/min/million cells and 2.66 pmol/min/million cells and 2.19 pmol/min/million cells
- Specific Activity Mean ± SD (CYP2E1 [1]; Donor 1, Metaxalone 0.4 μM): 2.47 ± 0.249 pmol/min/million cells
- Percent of VC (CYP2E1 [1]; Donor 1, Metaxalone 4 μM): 104%
- Specific Activity Individual (CYP2E1 [1]; Donor 1, Metaxalone 4 μM): 2.57 pmol/min/million cells and 2.47 pmol/min/million cells and 2.87 pmol/min/million cells
- Specific Activity Mean ± SD (CYP2E1 [1]; Donor 1, Metaxalone 4 μM): 2.64 ± 0.210 pmol/min/million cells
- Percent of VC (CYP2E1 [1]; Donor 1, Metaxalone 40 μM): 104%
- Specific Activity Individual (CYP2E1 [1]; Donor 1, Metaxalone 40 μM): 2.54 pmol/min/million cells and 2.66 pmol/min/million cells and 2.69 pmol/min/million cells
- Specific Activity Mean ± SD (CYP2E1 [1]; Donor 1, Metaxalone 40 μM): 2.63 ± 0.0782 pmol/min/million cells
- Percent of VC (CYP2E1 [1]; Donor 2, Metaxalone 0.4 μM): 104%
- Specific Activity Individual (CYP2E1 [1]; Donor 2, Metaxalone 0.4 μM): 0.631 pmol/min/million cells and 0.683 pmol/min/million cells and 0.765 pmol/min/million cells
- Specific Activity Mean ± SD (CYP2E1 [1]; Donor 2, Metaxalone 0.4 μM): 0.693 ± 0.0673 pmol/min/million cells
- Percent of VC (CYP2E1 [1]; Donor 2, Metaxalone 4 μM): 89.6%
- Specific Activity Individual (CYP2E1 [1]; Donor 2, Metaxalone 4 μM): 0.564 pmol/min/million cells and 0.605 pmol/min/million cells and 0.626 pmol/min/million cells
- Specific Activity Mean ± SD (CYP2E1 [1]; Donor 2, Metaxalone 4 μM): 0.598 ± 0.0317 pmol/min/million cells
- Percent of VC (CYP2E1 [1]; Donor 2, Metaxalone 40 μM): 99.6%
- Specific Activity Individual (CYP2E1 [1]; Donor 2, Metaxalone 40 μM): 0.558 pmol/min/million cells and 0.633 pmol/min/million cells and 0.804 pmol/min/million cells
- Specific Activity Mean ± SD (CYP2E1 [1]; Donor 2, Metaxalone 40 μM): 0.665 ± 0.126 pmol/min/million cells
- Percent of VC (CYP2E1 [1]; Donor 3, Metaxalone 0.4 μM): 90.7%
- Specific Activity Individual (CYP2E1 [1]; Donor 3, Metaxalone 0.4 μM): 0.449 pmol/min/million cells and 0.474 pmol/min/million cells and 0.462 pmol/min/million cells
- Specific Activity Mean ± SD (CYP2E1 [1]; Donor 3, Metaxalone 0.4 μM): 0.462 ± 0.0125 pmol/min/million cells
- Percent of VC (CYP2E1 [1]; Donor 3, Metaxalone 4 μM): 87.7%
- Specific Activity Individual (CYP2E1 [1]; Donor 3, Metaxalone 4 μM): 0.468 pmol/min/million cells and 0.464 pmol/min/million cells and 0.406 pmol/min/million cells
- Specific Activity Mean ± SD (CYP2E1 [1]; Donor 3, Metaxalone 4 μM): 0.446 ± 0.0348 pmol/min/million cells
- Percent of VC (CYP2E1 [1]; Donor 3, Metaxalone 40 μM): 93.9%
- Specific Activity Individual (CYP2E1 [1]; Donor 3, Metaxalone 40 μM): 0.470 pmol/min/million cells and 0.495 pmol/min/million cells and 0.469 pmol/min/million cells
- Specific Activity Mean ± SD (CYP2E1 [1]; Donor 3, Metaxalone 40 μM): 0.478 ± 0.0146 pmol/min/million cells
- effects on CYP activity (CYP2E1 [1]; any of the tested concentrations (0.4, 4.0, 40 μM)): no significant effects
- inhibition of CYP activity at a statistically significant level (CYP2A6; 0.3-100 μM metaxalone): no tested concentration of metaxalone inhibited activity
- Inhibitor (CYP2A6; CYP isozyme 2A6, summary of studies): 0
- Percent of VC (CYP2A6; metaxalone 0.3 μM): 96.9%
- Specific Activity Individual (CYP2A6; metaxalone 0.3 μM): 430 pmol/min/mg protein and 398 pmol/min/mg protein and 410 pmol/min/mg protein
- Specific Activity Mean ± SD (CYP2A6; metaxalone 0.3 μM): 413 ± 16.0 pmol/min/mg protein
- Percent of VC (CYP2A6; metaxalone 1 μM): 95.7%
- Specific Activity Individual (CYP2A6; metaxalone 1 μM): 399 pmol/min/mg protein and 409 pmol/min/mg protein and 414 pmol/min/mg protein
- Specific Activity Mean ± SD (CYP2A6; metaxalone 1 μM): 407 ± 7.36 pmol/min/mg protein
- Percent of VC (CYP2A6; metaxalone 3 μM): 102%
- Specific Activity Individual (CYP2A6; metaxalone 3 μM): 420 pmol/min/mg protein and 453 pmol/min/mg protein and 435 pmol/min/mg protein
- Specific Activity Mean ± SD (CYP2A6; metaxalone 3 μM): 436 ± 16.1 pmol/min/mg protein
- Percent of VC (CYP2A6; metaxalone 30 μM): 107%
- Specific Activity Individual (CYP2A6; metaxalone 30 μM): 433 pmol/min/mg protein and 461 pmol/min/mg protein and 471 pmol/min/mg protein
- Specific Activity Mean ± SD (CYP2A6; metaxalone 30 μM): 455 ± 19.7 pmol/min/mg protein
- Percent of VC (CYP2A6; metaxalone 100 μM): 94.8%
- Specific Activity Individual (CYP2A6; metaxalone 100 μM): 395 pmol/min/mg protein and 393 pmol/min/mg protein and 423 pmol/min/mg protein
- Specific Activity Mean ± SD (CYP2A6; metaxalone 100 μM): 404 ± 16.6 pmol/min/mg protein
- metaxalone converted to a carboxylic acid derivative [2]: 27%
- Metaxalone Present Adjusted Individual (CYP3A4; metaxalone 0.5 μM): 0.320 µM and 0.323 µM and 0.317 µM
- Metaxalone Present Adjusted Mean ± SD (CYP3A4; metaxalone 0.5 μM): 0.320 ± 0.00333 µM
- Metaxalone Present Raw (CYP3A4; metaxalone 0.5 μM): 0.1598 µM and 0.1616 µM and 0.1583 µM
- Percent of Metabolic Negative Control Individual (CYP3A4; metaxalone 0.5 μM): 101% and 102% and 99.6%
- Percent of Metabolic Negative Control Mean ± SD (CYP3A4; metaxalone 0.5 μM): 101 ± 1.05%
- Metaxalone Present Adjusted Individual (CYP3A4; metaxalone 2.5 μM): 1.71 µM and 1.66 µM and 1.67 µM
- Metaxalone Present Adjusted Mean ± SD (CYP3A4; metaxalone 2.5 μM): 1.68 ± 0.0289 µM
- Metaxalone Present Raw (CYP3A4; metaxalone 2.5 μM): 0.8573 µM and 0.8292 µM and 0.8374 µM
- Percent of Metabolic Negative Control Individual (CYP3A4; metaxalone 2.5 μM): 99.8% and 96.5% and 97.5%
- Percent of Metabolic Negative Control Mean ± SD (CYP3A4; metaxalone 2.5 μM): 98.0 ± 1.68%
- Percent of Metabolic Negative Control Individual (CYP3A4; metaxalone 25 μM): 98.1% and 97.1% and 99.3%
- Percent of Metabolic Negative Control Mean ± SD (CYP3A4; metaxalone 25 μM): 98.1 ± 1.10%
- percent turnover (CYP2E1 [3]; 0.75 μM metaxalone, 5 pmol CYP450): 11.3%
- % Turnover Mean (CYP2E1 [3]; 0.75 μM metaxalone, 5 pmol cyp): 11.3%
- [metaxalone] Mean (CYP2E1 [3]; 0.75 μM metaxalone, 5 pmol cyp): 0.631 µM
- % Turnover % (CYP2E1 [3]; 0.75 μM metaxalone, 5 pmol cyp): 2.7% and 15.1% and 16.3%
- [metaxalone] (CYP2E1 [3]; 0.75 μM metaxalone, 5 pmol cyp): 0.693 µM and 0.604 µM and 0.596 µM
- percent turnover (CYP2E1 [3]; 0.75 μM metaxalone, 20 pmol CYP450): 16.2%
- % Turnover Mean (CYP2E1 [3]; [5]): 16.2%
- [metaxalone] Mean (CYP2E1 [3]; [5]): 0.597 µM
- % Turnover % (CYP2E1 [3]; [5]): 14.6% and 12.6% and 21.3%
- [metaxalone] (CYP2E1 [3]; [5]): 0.608 µM and 0.622 µM and 0.560 µM
- percent turnover (CYP2E1 [3]; 7.5 μM metaxalone, 5 pmol CYP450): 18.4%
- % Turnover Mean (CYP2E1 [3]; 7.5 μM metaxalone, 5 pmol cyp): 18.4%
- [metaxalone] Mean (CYP2E1 [3]; 7.5 μM metaxalone, 5 pmol cyp): 6.29 µM
- % Turnover % (CYP2E1 [3]; 7.5 μM metaxalone, 5 pmol cyp): 16.9% and 16.7% and 21.7%
- [metaxalone] (CYP2E1 [3]; 7.5 μM metaxalone, 5 pmol cyp): 6.41 µM and 6.42 µM and 6.04 µM
- percent turnover (CYP2E1 [3]; 7.5 μM metaxalone, 20 pmol CYP450): 17.2%
- % Turnover Mean (CYP2E1 [3]; 7.5 μM metaxalone, 20 pmol cyp): 17.2%
- [metaxalone] Mean (CYP2E1 [3]; 7.5 μM metaxalone, 20 pmol cyp): 6.39 µM
- % Turnover % (CYP2E1 [3]; 7.5 μM metaxalone, 20 pmol cyp): 18.0% and 19.0% and 14.5%
- [metaxalone] (CYP2E1 [3]; 7.5 μM metaxalone, 20 pmol cyp): 6.33 µM and 6.25 µM and 6.60 µM
- Substrate (CYP2E1 [3]; [4]): +
- inhibition of CYP activity at a statistically significant level (CYP2C9; 0.3-100 μM metaxalone): no tested concentration of metaxalone inhibited activity
- Inhibitor (CYP2C9; CYP isozyme 2C9, summary of studies): 0
- Percent of VC (CYP2C9; metaxalone 0.3 μM): 81.4%
- Specific Activity Individual (CYP2C9; metaxalone 0.3 μM): 36.3 pmol/min/mg protein and 35.8 pmol/min/mg protein and 36.2 pmol/min/mg protein
- Specific Activity Mean ± SD (CYP2C9; metaxalone 0.3 μM): 36.1 ± 0.283 pmol/min/mg protein
- Percent of VC (CYP2C9; metaxalone 1 μM): 81.6%
- Specific Activity Individual (CYP2C9; metaxalone 1 μM): 40.3 pmol/min/mg protein and 37.5 pmol/min/mg protein and 30.6 pmol/min/mg protein
- Specific Activity Mean ± SD (CYP2C9; metaxalone 1 μM): 36.2 ± 4.98 pmol/min/mg protein
- Percent of VC (CYP2C9; metaxalone 3 μM): 81.2%
- Specific Activity Individual (CYP2C9; metaxalone 3 μM): 34.8 pmol/min/mg protein and 34.0 pmol/min/mg protein and 39.1 pmol/min/mg protein
- Specific Activity Mean ± SD (CYP2C9; metaxalone 3 μM): 36.0 ± 2.75 pmol/min/mg protein
- Percent of VC (CYP2C9; metaxalone 30 μM): 91.0%
- Specific Activity Individual (CYP2C9; metaxalone 30 μM): 39.9 pmol/min/mg protein and 38.3 pmol/min/mg protein and 42.8 pmol/min/mg protein
- Specific Activity Mean ± SD (CYP2C9; metaxalone 30 μM): 40.3 ± 2.24 pmol/min/mg protein
- Percent of VC (CYP2C9; metaxalone 100 μM): 87.4%
- Specific Activity Individual (CYP2C9; metaxalone 100 μM): 43.4 pmol/min/mg protein and 36.6 pmol/min/mg protein and 36.3 pmol/min/mg protein
- Specific Activity Mean ± SD (CYP2C9; metaxalone 100 μM): 38.8 ± 4.00 pmol/min/mg protein
